Test results reported in patent US5374623A, “Cysteine protease inhibitors effective for in vivo use” (Prototek, Inc., priority 1992, dated 1994).
pIC50: −log10 of the molar value.

Experiments:
[1] = test system: Soluble extracts of P. vinckei; assay: Proteolytic activity of P. vinckei soluble extracts, substrate Z-Phe-Arg-AFC; format: biochemical; conditions: read-out: IC50, proteolytic activity of P. vinckei extract
Description: (§1) Treatment of Malaria with Mu-Phe-HPhe-O-Ph. Soluble extracts of P. falciparum and P. vinckei were prepared and proteolytic activity was assayed with fluorogenic peptide substrate Z-Phe-Arg-AFC. The activity of control samples was compared with activities in the presence of multiple concentrations of Mu-Phe-HPhe-O-Ph. The concentrations at which activity was inhibited by 50% (IC50) was calculated.
as §1, with “with Mu-Leu-HPhe-O-Ph.” for “with Mu-Phe-HPhe-O-Ph.”, “of Mu-Leu-HPhe-O-Phe.” for “of Mu-Phe-HPhe-O-Ph.”, “The concentration” for “The concentrations”, “by 50%.” for “by 50%”
as §1, with “with Mu-Phe-Arg(NO2)-O-Ph.” for “with Mu-Phe-HPhe-O-Ph.”, “of Mu-Phe-Arg(NO2)-O-Ph.” for “of Mu-Phe-HPhe-O-Ph.”, “The concentration” for “The concentrations”
as §1, with “with Mu-Tyr(OCH3)2 -HPhe-O-Ph.” for “with Mu-Phe-HPhe-O-Ph.”, “samples as” for “samples was”, “of Mu-Tyr(OCH3)2 -HPhe-O-Ph.” for “of Mu-Phe-HPhe-O-Ph.”, “The concentration” for “The concentrations”

experimental gingivitis = assay: Experimental gingivitis in human subjects; format: in vivo; conditions: twenty human subjects, inhibitor placed at test sites and sealed with Coe-pak for a week, blind, placebo control
Excerpt: Treatment of Gingivitis with Mu-Phe-HPhe-O-Ph. The effect of the inhibitor on gingival inflammation was studied by investigating its ability to prevent the development of experimental gingivitis. Twenty human subjects with healthy gingiva and no periodontal disease were recruited. The subjects received oral hygiene instruction and scaling prior to baseline. The test sites were the mesibuccal crevices on the upper first and second molars and premolars (bicuspids). Acrylic shields were made to cover the gingival margins of these teeth and were worn during oral hygiene to prevent brushing of the test and control sites. During the test period of three weeks the subjects were told to brush only the lower teeth and upper anteriors and to ear the shields during brushing. The left side was used as the test side and the right was the control side in 10 subjects. The sides were reversed in the other 10 subjects so the subjects could act as their own controls. Thirty second GCF samples were taken prior to clinical measurements at baseline and at 1, 2, 3 and 4 weeks. These were assayed for cathepsins B and L-like activities. Clinical measurements of gingival index (GI), gingival bleeding index (GBI) and plaque index (PLI) were taken at test and control sites at zero, one, two, three and four weeks. […]

[2] = test system: 45Ca2+-labelled bones (calvaria) of neonatal mice; assay: Parathyroid hormone-stimulated 45Ca2+ release from cultured mouse calvaria; format: cell-based; conditions: 24 hour period, PTH-stimulated
Description: (§2) Treatment of Osteo Arthritis with Mu-Phe-HPhe-O-Ph. ^45 Ca^2+ -labelled bones (calvaria) of neonatal mice were maintained in culture. The effect of the test compound on the rate of parathyroid hormone-stimulated ^45 Ca^2+ release was measured over a 24 hour period. An inhibitor of bone resorption (at maximal concentrations) would be expected to inhibit this rate by approximately 70%. The nature of the residual, uninhibitable ^45 Ca^2+ -release is not known but could represent chemical exchange of ^45 Ca^2+ with the medium. Mu-Phe-HPhe-O-Ph was dissolved in dimethylsulphoxide which was present in the incubation at concentrations <0.1%.
as §2, with “Mu-Leu-HPhe-O-Ph.” for “Mu-Phe-HPhe-O-Ph.”, “Mu-Leu-HPhe-O-Ph” for “Mu-Phe-HPhe-O-Ph”
as §2, with “Mu-Tyr(OMe)-HPhe-O-Ph.” for “Mu-Phe-HPhe-O-Ph.”, “Mu-Tyr(OMe)-HPhe-O-Ph” for “Mu-Phe-HPhe-O-Ph”
as §2, with “Z-Phe-Ala-O-Ph.” for “Mu-Phe-HPhe-O-Ph.”, “Z-Phe-Ala-O-Ph” for “Mu-Phe-HPhe-O-Ph”
as §2, with “Mu-Tyr(OMe)-HPhe-O-Ph.” for “Mu-Phe-HPhe-O-Ph.”, “labelled” for “-labelled”, “Mu-Tyr(OMe)-HPhe-O-Ph” for “Mu-Phe-HPhe-O-Ph”

## O=C(O)Cc1ccccc1OCC(=O)[C@H](CCc1ccccc1)NC(=O)[C@H](Cc1ccccc1)NC(=O)N1CCOCC1 [Mu-Phe-HPhe-O-Ph, (4-morpholinylcarbonyl)-L-phenylalanyl-L-homophenylalanyl-(2-carboxymethyl)phenoxymethyl ketone]
[1]
  pIC50: 8.29
Experimental gingivitis
  GI, GBI, PLI and cysteine proteinase levels at test vs control sites: reduced all parameters tested at the test sites
[2]; 1 μm inhibitor
  inhibition of the rate of 45Ca2+-release: 50%
[2]; 100 μm inhibitor
  additional inhibition of the rate of 45Ca2+-release: 20%
